What was measured:
[1] = test system: HCT-116 cells; assay: Flow cytometry apoptosis analysis (Annexin V and PI double staining); type: cell-based, human; conditions: HCT-116, 2.44 μM, 48 h
Procedure: The Annexin V and PI double staining experiment was used to further investigate the apoptotic effect of compound 16 in HCT-116 cells. In this process, HCT-116 cells were treated with compound 16 at a concentration of 2.44 μM and incubated for 48 h. The apoptotic effect of compound 16 on HCT-116 cells was about nine times greater than that of untreated HCT-116 cells. In comparison to control cells (5.62%), compound 16 caused 48.82% programmed cell death (early apoptosis = 46.77% & late apoptosis = 2.05%) (Table 3 and Fig 4B).
Flow cytometry cell apoptosis analysis was used to investigate the apoptotic effect of compound 16 as follows.
[…] cells were treated with compound 16 (2.44 μM) for 48 h, collected by trypsin, centrifuged, washed two successive times with PBS, suspended in 500 μl binding buffer, and double stained with 5 μl Annexin V-FITC and 5 μl PI in the dark at room temperature for 15 min. The stained cells were measured using Epics XL-MCL™ Flow Cytometer and analyzed using Flowing software. […]
(§1) S2.6. Flow cytometry analysis for apoptosis
Flow cytometry cell apoptosis analysis was used to investigate the apoptotic effect of the synthesized compounds. […] cells were treated with compound 16 (2.44 µM) for 48 h, collected by trypsin, centrifuged, washed two successive times with PBS, suspended in 500 μl binding buffer, and double stained with 5 μl Annexin V-FITC and 5 μl PI in the dark at room temperature for 15 min. The stained cells were measured using Epics XL-MCL™ Flow Cytometer and analyzed using Flowing software.

[2] = test system: Activated Calf Thymus DNA; assay: DNA/methyl green assay (DNA intercalation); type: binding
Procedure: The most promising members (13a, 14a, 16, 17, 18, 19, and 20) were further investigated for their binding affinity against DNA. […] The results of DNA-binding affinities were reported in Table 1 as IC50 values calculated from the concentration-inhibition response curve.
Activated Calf Thymus DNA (Merk, Germany) was treated with methyl green (Merk, Germany), then the synthesized compounds were applied to displace the methyl green dye, producing equivalent color.
After that, the DNA was run on 1% agarose gel in BioRad gel electrophoresis system for 1–2 h followed by staining with GelRedTM stain for 2 h and destained for 15 min with TAE buffer. The gel was imaged via BioRad’s Gel DocTMEZ system. Both supercoiled and linear strands DNA were incorporated in the gel as markers for DNA-Topo II intercalators. The results of IC50 values were calculated using the GraphPad Prism version 7. Each reaction was performed in duplicate, and at least three independent determinations of each IC50 were made.
S2.3. DNA/Methyl Green Assay […]
methyl green dye method described by Burres et al. Activated Calf Thymus DNA (Merk, Germany) was treated with methyl green (Merk, Germany), then the synthesized compounds were applied to displace the methyl green dye, producing equivalent color. […]

[3] = test system: BAX; assay: Western blot, BAX level; type: cell-based, human; conditions: HCT-116, 2.44 μM, 48 h; control = 1.00
Procedure: In comparison to the control, compound 16 elevated the level of the proapoptotic protein (BAX) by 2.18 times. […] Furthermore, compound 16 enhanced the BAX/Bcl-2 ratio by 4.38-fold in comparison to control cells.
The effects of compound 16 on the expression of BAX, and Bcl‐2 were determined using Western blot analysis [62–64]as described in Electronic Supplementary Material S2.7 in S1 Appendix. […]
for 48 h. Then, the cells were fixed in 70% ethanol at 4 °C for 12 h. After that, the cells were washed with cold PBS, incubated with 100 μl RNase A at 37 °C for 30 min, and stained with 400 μl PI in the dark at room temperature for further 30 min. The stained cells were measured using Epics XL-MCL™ Flow Cytometer (Beckman Coulter), and the data were analyzed using Flowing software (version 2.5.1, Turku Centre for Biotechnology, Turku, Finland).
as §1
Flow cytometry cell apoptosis analysis was used to investigate the apoptotic effect of the synthesized compounds. […] The stained cells were measured using Epics XL-MCL™ Flow Cytometer and analyzed using Flowing software. […]
The proteins expression of BAX, and Bcl‐2 were determined using Western blot analysis. […] Total protein concentrations in the supernatant were determined colorimetrically using the Pierce 660 nm Protein Assay method (Thermo Fisher Scientific, Rockford, IL), with BSA as the standard. […]

CCCNc1nc2ccccc2c2nnc(C(F)(F)F)n12 [Compound 16, N-Propyl-3-(trifluoromethyl)-[1,2,4]triazolo[4,3-c]quinazolin-5-amine]
Apoptosis Early (Right Bottom) ([1]; mean ± SEM): 46.77 ± 0.83 % | Apoptosis Late (Right Top) ([1]; mean ± SEM): 2.05 ± 0.92% | Necrosis (Left Top) ([1]; mean ± SEM): 0.90 ± 0.36 | Viable (Left Bottom) ([1]; mean ± SEM): 50.28 ± 2.10 | Programmed cell death (early + late apoptosis) ([1]; control cells 5.62%): 48.82% | IC50 ([2]; 50% inhibition concentration of DNA/methyl green assay, read-out: DNA/Methyl green (IC50)): 10.2 ± 0.4 µM | LogIC50 (best-fit value, DNA/Topo-II Inhibition (%) curve) ([2]; log of drug concentration in uM, supplement curve fit): 1.011 | HillSlope (best-fit value, DNA/Topo-II Inhibition (%) curve) ([2]; supplement curve fit): 0.3743 | Protein expression (normalized to β-actin) BAX [3]: 2.18 ± 0.12

From publication PMC9886266, “New [1,2,4]triazolo[4,3-c]quinazolines as intercalative Topo II inhibitors: Design, synthesis, biological evaluation, and in silico studies” (PLOS ONE, 2023)
